Patent US8604216B2, “Desferrithiocin derivatives and methods of use thereof” (University of Florida Research Foundation, Inc., priority 2003, dated 2013)

Assays:
[1] = test system: iron-overloaded Cebus apella monkeys; assay: Iron clearance in iron-overloaded Cebus apella monkeys; type: in vivo; conditions: oral
Experimental: (S)-2-(4′,5′-dimethoxyphenyl)-4-methylthiazoline-4-carboxylic acid (2) was administered to iron-overloaded Cebus apella monkeys. The protocol can be found in Bergeron, R. J. et al., “Methoxylatoin of Desazadesferrithiocin Analogues: Enhanced Iron Clearing Efficiency,” J Med Chem. 46:1470-1477 (2003), the contents of which are incorporated herein by reference. Briefly, the monkeys were iron overloaded with iron dextran administered intravenously to result in an iron loading of about 500 mg per kg of body weight. At least 20 half-lives, 60 days, elapsed before the animals were used in experiments evaluating iron chelators. The iron chelator was solubilized in 40% Cremophor RH-40/water (v/v) and were administered orally to the monkeys. Fecal and urine samples were collected at 24 hour intervals beginning 4 days prior to the administration of an iron chelator and continued for 5 days after the chelator was administered. Iron concentrations in stool and urine were determined by flame atomic absorption spectroscopy. Iron chelator efficiency was calculated by dividing the net iron clearance [total iron excretion (stool plus urine) minus background] by the theoretical iron clearance and multiplying by 100. The theoretical clearance of the iron chelator was generated on the basis of a 2:1 ligand/iron complex. At a dose of 114.2 μmol/kg, the efficiency of 2 was calculated to be 14.8±2.9%. […] Approximately 20% of the iron was excreted in the urine, while the majority (approximately 80%) was eliminated in the feces. In a separate experiment, 2 was administered to iron overloaded Cebus apella at a dose of 150 μmol/kg. In this experiment, the iron clearing efficiency was calculated to be 16.1±4.1%. This efficiency was within error of the lower dose of 2 […].

[2] = test system: non-iron overloaded, fasted rats; assay: Iron clearance in bile duct-cannulated rats; type: in vivo; conditions: male Sprague-Dawley rats
Experimental: (S)-2-(4′,5′-dimethoxyphenyl)-4-thiazoline-4-carboxylic acid (1) was administered to non-iron overloaded, fasted rats that had been subjected to routine bile duct cannulation. Briefly, male Sprague-Dawley rats averaging 450 g were housed in Nalgene plastic metabolic cages during the experimental period and given free access to water. The animals were anesthetized using sodium pentobarbital (55 mg/kg) administered intraperitoneally. The bile duct was cannulated using 22-gauge polyethylene tubing. The cannula was inserted into the duct about 1 cm from the duodenum and tied snugly in place. After threading through the shoulder, the cannula was passed from the rat to the swivel inside a metal torque-transmitting tether, which was attached to a rodent jacket around the animal's chest. The cannula was directed from the rat to a Gilson microfraction collector (Middleton, Wis.) by a fluid swivel mounted above the metabolic cage. Bile samples were collected at 3 hour intervals for 24 hours. The urine sample was taken at 24 hours and handling was as previously described in Bergeron, R. J., et al., J Med Chem. 34:2072-2078 (1991), the contents of which are incorporated herein by reference.

Compound | share of iron eliminated in the feces ([1]; 114.2 μmol/kg) | share of iron excreted in the urine ([1]; 114.2 μmol/kg) | iron clearing efficiency ([1]; 114.2 μmol/kg, in 40% Cremophor RH-40/water, stool plus urine iron minus background vs theoretical 2:1 ligand/iron complex) | iron clearing efficiency ([1]; 150 μmol/kg, separate experiment) | tolerability [2] | efficiency of iron excretion ([2]; bile collected for 24 hours, urine at 24 hours)
COc1ccc(C2=N[C@@](C)(C(=O)O)CS2)cc1OC [Compound 2, (S)-2-(4′,5′-dimethoxyphenyl)-4-methylthiazoline-4-carboxylic acid] | approximately 80% | Approximately 20% | 14.8±2.9% | 16.1±4.1% |  | 
COc1ccc([C@H]2NC(C(=O)O)=CS2)cc1OC [Compound 1, (S)-2-(4′,5′-dimethoxyphenyl)-4-thiazoline-4-carboxylic acid] |  |  |  |  | tolerated the drug well | less than 0.5%
